The source of these data is patent EP2261259B1, “Immunoassay for N-(3-chlorophenyl)piperazine-based anti-depressants” (Randox Laboratories Ltd., priority 2009, dated 2010).

The assay concerns antibody of the invention. Put plainly: Competitive ELISA (antibody-coated microtitre plate, hapten-HRP conjugate, TMB, absorbance at 450 nm). Type of assay: binding, sheep. The note with it: for %CR: percentage cross-reactivity based on 100% specificity to nefazodone; for %B/B0: B0 = absorbance at 0 ng/ml; for A450: absorbance at 450 nm; for IC50: standard concentration which produces 50% B/B0. Here is the method:
The process of developing an immunoassay is well known to the person skilled in the art. […] The serum from the immunised animal is collected when the antibody titre is sufficiently high. A conjugate is added to a sample containing the target analyte and the raised antibodies, and the conjugate and analyte compete for binding to the antibodies. The process may comprise fixing said serum antibodies to a backing substrate such as a polystyrene solid support or a biochip. The antibodies can be polyclonal or monoclonal. The signal emitted in the immunoassay is proportionate to the amount of conjugate bound to the antibodies which in turn is inversely proportionate to the analyte concentration. The signal can be detected or quantified by comparison with a calibrator.
The resulting immunogens were administered separately to adult sheep on a monthly basis to provide target-specific polyclonal antisera. IgG was extracted from the antisera via Caprylic acid/ammonium sulphate precipitation of immunoglobulin. Microtitre plates (Thermo Scientific, 95029180) were coated with antibody (125µl) in coating buffer (10mM Tris pH 8.5) at 37°C for 2 hours. Antibody was coated at 2.5µg/ml. The plates were then washed. […] The plates were then washed and 125µl of TMB (Randox, 4380-15) was added to each well and left at room temperature for 20mins in the dark. The reaction was stopped using 125µl of 0.2M sulphuric acid. The absorbancies were read at 450nm with an ELISA microplate reader (BIO-TEK Instruments, EL340) and the means calculated. Antibody specificity and sensitivity were then determined

Where [1] appears, read: standard concentration 0.156 ng/ml.
Setting [2] is: standard concentration 0.313 ng/ml.
The mark [3] stands for this setting: standard concentration 0.625 ng/ml.
The mark [4] stands for this setting: standard concentration 1.250 ng/ml.
[5] abbreviates: standard concentration 2.500 ng/ml.
Setting [6] is: standard concentration 5.000 ng/ml.
[7] abbreviates: standard concentration 10.000 ng/ml.

Converted amounts (≈) assume the structure as drawn.

`O=c1n(CCCN2CCN(c3cccc(Cl)c3)CC2)nc2ccccn12` [Trazodone, 2-{3-[4-(3-chlorophenyl)-1-piperazinyl]propyl}-[1,2,4]triazolo[4,3-a]pyridin-3(2H)-one]: the “%CR” value amounted to 733%. Under setting [1], the “%B/B0” value is given as 67% and the A450 is listed as 1.456. Under setting [2], the “%B/B0” value is given as 58% and the A450 is listed as 1.271. Under setting [3], the “%B/B0” value is 48% and the A450 was 1.041. Also, under setting [4], the “%B/B0” value was found to be 35% and the A450 is 0.763. For the same molecule, under setting [5], the “%B/B0” value came out at 25% and the A450 was 0.551. Further, under setting [6], the “%B/B0” value was determined as 18% and the A450 was found to be 0.398. For the same molecule, under setting [7], the “%B/B0” value amounted to 13% and the A450 worked out at 0.287.

Broadly, the IC50 is the midpoint of a concentration-inhibition curve. A higher IC50 goes with a need for much substance. Take `Clc1cccc(N2CCNCC2)c1` [mCPP, N-(3-chlorophenyl)piperazine]: the “%CR” value came to 46% and the IC50 came out at 8.476 ng/mL (≈ 0.0431 µM). Under setting [1], the “%B/B0” value was determined as 85% and the A450 was determined as 1.821. Under setting [2], the “%B/B0” value is reported as 79% and the A450 is listed as 1.679. For the same molecule, under setting [3], the “%B/B0” value is given as 72% and the A450 came to 1.534. Also, under setting [4], the “%B/B0” value was 65% and the A450 worked out at 1.380. Under setting [5], the “%B/B0” value amounted to 55% and the A450 was found to be 1.183. Further, under setting [6], the “%B/B0” value is on record as 48% and the A450 is recorded as 1.027. Further, under setting [7], the “%B/B0” value was 42% and the A450 is reported as 0.888.

`CCc1nn(CCCN2CCN(c3cccc(Cl)c3)CC2)c(=O)n1CCOc1ccccc1` [Nefazodone, 2-{3-[4-(3-chlorophenyl)-1-piperazinyl]propyl}-5-ethyl-4-(2-phenoxyethyl)-1,2,4-triazol-3-one]: the “%CR” value is on record as 100% and the IC50 was 3.901 ng/mL (≈ 0.0083 µM). Besides, under setting [1], the “%B/B0” value was found to be 91% and the A450 came out at 1.850. In addition, under setting [2], the “%B/B0” value stood at 83% and the A450 is 1.671. Further, under setting [3], the “%B/B0” value came out at 73% and the A450 stood at 1.467. In addition, under setting [4], the “%B/B0” value is listed as 58% and the A450 is given as 1.168. For the same molecule, under setting [5], the “%B/B0” value worked out at 46% and the A450 is listed as 0.923. Under setting [6], the “%B/B0” value came out at 34% and the A450 was determined as 0.683. For the same molecule, under setting [7], the “%B/B0” value came to 24% and the A450 is recorded as 0.494.
